Test systems include U251 CNS; UACC-257 melanoma; A498 renal; SK-MEL-28 melanoma; HL-60(TB) leukemia; HS 578T breast; OVCAR-3 ovarian; OVCAR-5 ovarian; NCI-H23 lung.
Common to all, as to test: inhibition of tumour cell growth, NCI panel, 48 h

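48-hour exposure; five concentrations; linearly interpolated endpoints. At the GI50, growth is halved. TGI is the concentration that stops growth completely.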

Consider `O=C(Nc1ncc(Cc2ccc(Cl)cc2)s1)c1ccc2c(c1)OCCO2`, for which the GI50 with U251 CNS is 0.0549 µM; with UACC-257 melanoma, 5.8 µM; in the assay with A498 renal, 0.0187 µM; with SK-MEL-28 melanoma, 1.02 µM; in the assay on HL-60(TB) leukemia it was 0.0537 µM; with HS 578T breast, 0.0422 µM. Moreover, the GI50 in the assay with OVCAR-3 ovarian was 0.0335 µM; in the assay with OVCAR-5 ovarian it was 0.266 µM; in the assay with NCI-H23 lung, 0.298 µM. For the same compound, the TGI in the assay on U251 CNS is > 45.3 µM; with UACC-257 melanoma, > 100 µM; with A498 renal it was 0.0809 µM; with SK-MEL-28 melanoma, > 100 µM; in the assay with HS 578T breast it was 8.65 µM; in the assay with OVCAR-3 ovarian, 0.398 µM. For the same compound, the TGI with OVCAR-5 ovarian and with NCI-H23 lung was > 100 µM throughout.

As to `COC(=O)CCC(=O)C(C#N)c1ccc(Cl)cc1Cl` (stereo not given), the TGI with U251 CNS, in the assay with UACC-257 melanoma, in the assay on SK-MEL-28 melanoma, in the assay on HL-60(TB) leukemia, with OVCAR-3 ovarian and in the assay with NCI-H23 lung was > 100 µM each time.

`NC(CCCNCc1ccccc1O)C(=O)O` (stereo not given): the TGI in the assay with UACC-257 melanoma, in the assay with A498 renal, in the assay with SK-MEL-28 melanoma, in the assay on HL-60(TB) leukemia, in the assay on OVCAR-3 ovarian and with OVCAR-5 ovarian was > 100 µM in each case. Further, the TGI in the assay on NCI-H23 lung is > 100 µM.

With `[O-][N+]1=C(c2ccccc2)COc2ccccc21`, the TGI in the assay on U251 CNS, in the assay on UACC-257 melanoma, in the assay on A498 renal, in the assay on SK-MEL-28 melanoma, in the assay on HL-60(TB) leukemia and with OVCAR-3 ovarian was > 100 µM in each case. Also, the TGI in the assay on OVCAR-5 ovarian and with NCI-H23 lung was > 100 µM each time.

Take `C/C(CN1C(=O)c2ccccc2C1=O)=N\NS(C)(=O)=O`: the TGI in the assay with U251 CNS, in the assay with UACC-257 melanoma, in the assay with A498 renal, in the assay with SK-MEL-28 melanoma, with HL-60(TB) leukemia and in the assay on OVCAR-3 ovarian was > 100 µM each time. For the same compound, the TGI in the assay with OVCAR-5 ovarian and in the assay with NCI-H23 lung was > 100 µM throughout.

As for `Clc1ccc(CCn2cncn2)c(Cl)c1`, the TGI with U251 CNS, in the assay with UACC-257 melanoma, in the assay with SK-MEL-28 melanoma, in the assay with HL-60(TB) leukemia, in the assay on OVCAR-3 ovarian and with OVCAR-5 ovarian was > 100 µM in each case. Further, in the assay with NCI-H23 lung, the TGI was > 100 µM.

In the case of `C#CCOc1c(OC)cc(C(=O)/C(C)=C/c2cccc(N=[N+]=[N-])c2)cc1OC`, the GI50 is 0.0793 µM in the assay on U251 CNS; 0.151 µM with A498 renal; 29 µM in the assay on SK-MEL-28 melanoma; 0.0411 µM in the assay on HL-60(TB) leukemia; 0.25 µM in the assay on HS 578T breast; 0.0519 µM in the assay on OVCAR-3 ovarian. The GI50 with OVCAR-5 ovarian is 1.23 µM; with NCI-H23 lung, 0.632 µM. The TGI with U251 CNS was > 100 µM; with A498 renal, 0.714 µM; with SK-MEL-28 melanoma, > 100 µM; in the assay with HL-60(TB) leukemia, 0.481 µM; in the assay on HS 578T breast, > 100 µM; with OVCAR-3 ovarian, 0.291 µM. In addition, the TGI in the assay with OVCAR-5 ovarian and in the assay with NCI-H23 lung was > 100 µM each time.

For the compound `C/C(CC(=O)Nc1ccc([N+](=O)[O-])cc1)=N/N=C(N)N`, the TGI in the assay on U251 CNS, in the assay with UACC-257 melanoma, with SK-MEL-28 melanoma, with HL-60(TB) leukemia, with OVCAR-3 ovarian and with OVCAR-5 ovarian was > 100 µM each time. Also, the TGI in the assay on NCI-H23 lung is > 100 µM.

`CC(=O)O[C@@H]1CC(=O)O[C@@H]2C[C@@H](CC/C(Cl)=C/C/C=C\1C)O[C@@H]2CO`: the GI50 with U251 CNS is > 25 µM; in the assay with UACC-257 melanoma, > 25 µM; with A498 renal, 20.1 µM; with SK-MEL-28 melanoma, > 25 µM; in the assay on HL-60(TB) leukemia, > 25 µM; in the assay on HS 578T breast, > 25 µM. Besides, the GI50 in the assay on OVCAR-5 ovarian and in the assay on NCI-H23 lung was > 25 µM in each case. Moreover, the TGI with U251 CNS, in the assay with UACC-257 melanoma, in the assay with A498 renal, in the assay on SK-MEL-28 melanoma, in the assay with HL-60(TB) leukemia and in the assay on HS 578T breast was > 25 µM each time. Further, the TGI in the assay with OVCAR-3 ovarian is > 10.6 µM; with OVCAR-5 ovarian, > 25 µM; in the assay with NCI-H23 lung, > 25 µM.

As to `N#Cc1ccccc1/C=N/O`, the TGI in the assay with U251 CNS is > 100 µM; in the assay on UACC-257 melanoma, > 100 µM; in the assay on A498 renal it was > 100 µM; in the assay on SK-MEL-28 melanoma, > 100 µM; in the assay with HL-60(TB) leukemia it was > 62.2 µM; with OVCAR-3 ovarian, > 100 µM. In addition, the TGI in the assay on OVCAR-5 ovarian and in the assay on NCI-H23 lung was > 100 µM each time.

With `Cc1cc2c(=O)cc(-c3ccc(C(=O)O)cc3)oc2c(C(=O)O)c1C`, the TGI with U251 CNS, in the assay on UACC-257 melanoma, in the assay on SK-MEL-28 melanoma, with HL-60(TB) leukemia, in the assay with OVCAR-3 ovarian and in the assay on OVCAR-5 ovarian was > 100 µM in each case. For the same compound, in the assay with NCI-H23 lung, the TGI was > 100 µM.

For `O=C(Nc1ccc(Cl)cc1Cl)/C(Cl)=C1/Sc2ccccc2NC1=O`, the TGI with U251 CNS was > 100 µM; in the assay on A498 renal, > 100 µM; with SK-MEL-28 melanoma it was 75.7 µM; in the assay with HL-60(TB) leukemia it was 53.8 µM; with OVCAR-5 ovarian, > 100 µM; in the assay on NCI-H23 lung, 55 µM.

In the case of `O=C(Cc1nc2ccccc2s1)NC12CC3CC(CC(C3)C1)C2`, the TGI with U251 CNS, with UACC-257 melanoma, with A498 renal, with SK-MEL-28 melanoma, in the assay on HL-60(TB) leukemia and in the assay on NCI-H23 lung was > 100 µM each time.

(Values after PubChem BioAssay (NCI).)
